Activity calls are given as the source filed them.
Experiments:
HEK293 [1] = test: cytotoxicity in HEK293T NF-kB-Luc cells, SAR follow-up, cytotoxicity control for NF-kB activator project, cell-based, resazurin fluorescence (AID 493251); assay type: functional; details: Homo sapiens
[2] = target: T1, Hepatocyte nuclear factor 4-alpha (Homo sapiens, UniProt P41235); assay type: functional, cell-based;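 also: biochemical luminescence-based dose-response counterscreen measuring inhibition of HNF4 dimerization, run alongside a screen for blockers of ABHD5–perilipin-5 interaction; split luciferase complementation of HNF4 fusion proteins in cell lysate measuring dimerization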
T1 sequence (P41235 whole entry): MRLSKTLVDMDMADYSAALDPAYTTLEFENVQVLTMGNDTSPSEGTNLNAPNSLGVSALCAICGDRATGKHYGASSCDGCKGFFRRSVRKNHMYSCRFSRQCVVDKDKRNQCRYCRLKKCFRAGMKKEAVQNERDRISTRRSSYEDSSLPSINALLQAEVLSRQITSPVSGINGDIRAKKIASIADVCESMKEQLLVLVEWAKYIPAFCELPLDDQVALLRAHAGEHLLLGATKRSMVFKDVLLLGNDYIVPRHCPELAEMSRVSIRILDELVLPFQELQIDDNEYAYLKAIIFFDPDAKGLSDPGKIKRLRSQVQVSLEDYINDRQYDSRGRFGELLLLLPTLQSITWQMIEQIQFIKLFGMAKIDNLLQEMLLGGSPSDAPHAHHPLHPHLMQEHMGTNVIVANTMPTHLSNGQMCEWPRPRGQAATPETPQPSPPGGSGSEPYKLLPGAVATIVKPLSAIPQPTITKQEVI

P388 = test: cells; assay type: functional; details: Mus musculus
P388/ADR = test: cells; assay type: functional; details: Mus musculus
SN12K1 = test: cells; assay type: functional; details: Homo sapiens
[3] = target: T2, Probable nicotinate-nucleotide adenylyltransferase (Staphylococcus aureus (strain N315), UniProt P65502); assay type: functional, Staphylococcus aureus subsp. aureus N315;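 as to IC50 Mean: confirmatory dose-response retesting of NadD inhibitor hits first found in an ultra-high-throughput screen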
T2 sequence (P65502 whole entry): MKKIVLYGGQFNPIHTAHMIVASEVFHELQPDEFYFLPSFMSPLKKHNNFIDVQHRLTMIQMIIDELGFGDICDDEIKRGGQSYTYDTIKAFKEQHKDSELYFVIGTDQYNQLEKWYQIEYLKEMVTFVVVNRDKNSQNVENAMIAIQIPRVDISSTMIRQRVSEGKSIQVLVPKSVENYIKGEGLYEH

[4] = target: T2, Probable nicotinate-nucleotide adenylyltransferase; assay type: functional, Staphylococcus aureus subsp. aureus N315; details: read-out: IC50_Mean
[5] = HeLa cell cytotoxicity, dose response, cytotoxicity control for MgcRacGAP inhibitor project (AID 624300); assay type: functional
[6] = target: Glucose-6-phosphate 1-dehydrogenase (Homo sapiens, UniProt P11413); test: human G6PD enzyme inhibitors, dose response, selectivity assay for P. falciparum G6PD inhibitor project, biochemical, fluorescence (AID 504792); assay type: functional
Sequence of Glucose-6-phosphate 1-dehydrogenase (P11413 whole entry): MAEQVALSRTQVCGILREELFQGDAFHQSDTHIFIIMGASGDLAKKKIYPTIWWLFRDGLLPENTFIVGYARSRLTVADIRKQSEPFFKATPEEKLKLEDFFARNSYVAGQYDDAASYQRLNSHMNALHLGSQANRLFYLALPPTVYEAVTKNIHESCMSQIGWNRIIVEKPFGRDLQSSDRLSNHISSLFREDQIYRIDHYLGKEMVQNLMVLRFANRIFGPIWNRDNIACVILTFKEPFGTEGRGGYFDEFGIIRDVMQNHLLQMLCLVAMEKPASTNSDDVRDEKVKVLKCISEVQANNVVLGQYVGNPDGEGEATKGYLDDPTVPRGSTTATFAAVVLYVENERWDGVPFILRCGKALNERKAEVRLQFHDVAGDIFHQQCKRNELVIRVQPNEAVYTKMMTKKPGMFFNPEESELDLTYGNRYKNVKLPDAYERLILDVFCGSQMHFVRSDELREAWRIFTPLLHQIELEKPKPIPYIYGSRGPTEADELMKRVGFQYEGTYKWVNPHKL

[7] = target: T3, Rac GTPase-activating protein 1 (Homo sapiens, UniProt Q9H0H5); test: MgcRacGAP GTPase-activating activity inhibitors, confirmation, biochemical, ADP Hunter fluorescence, primary and confirmatory (AID 624330); assay type: functional
T3 sequence (Q9H0H5 whole entry): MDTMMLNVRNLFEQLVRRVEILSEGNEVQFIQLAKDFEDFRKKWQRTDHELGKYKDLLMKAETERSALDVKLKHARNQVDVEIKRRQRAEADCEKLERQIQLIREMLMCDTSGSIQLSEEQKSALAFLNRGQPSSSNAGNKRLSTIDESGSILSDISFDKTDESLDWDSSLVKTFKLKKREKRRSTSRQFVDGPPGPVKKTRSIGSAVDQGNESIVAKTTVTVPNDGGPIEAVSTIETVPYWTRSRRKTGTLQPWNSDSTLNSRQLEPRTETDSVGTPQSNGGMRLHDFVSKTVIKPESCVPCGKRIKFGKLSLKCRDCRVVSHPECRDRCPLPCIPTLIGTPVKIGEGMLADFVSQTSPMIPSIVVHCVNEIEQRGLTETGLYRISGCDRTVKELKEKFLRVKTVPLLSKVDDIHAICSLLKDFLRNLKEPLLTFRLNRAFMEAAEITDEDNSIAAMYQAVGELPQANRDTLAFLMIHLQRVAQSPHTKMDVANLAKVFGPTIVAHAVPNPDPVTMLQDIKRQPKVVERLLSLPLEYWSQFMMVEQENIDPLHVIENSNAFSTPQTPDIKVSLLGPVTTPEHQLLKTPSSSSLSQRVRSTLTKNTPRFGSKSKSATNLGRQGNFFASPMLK

[8] = target: Heat shock protein HSP 90-alpha (Homo sapiens, UniProt P07900); assay type: functional, organism-based
[9] = target: T4, DNA repair protein RAD52 homolog (Homo sapiens, UniProt P43351); assay type: functional, biochemical
T4 sequence (P43351 whole entry): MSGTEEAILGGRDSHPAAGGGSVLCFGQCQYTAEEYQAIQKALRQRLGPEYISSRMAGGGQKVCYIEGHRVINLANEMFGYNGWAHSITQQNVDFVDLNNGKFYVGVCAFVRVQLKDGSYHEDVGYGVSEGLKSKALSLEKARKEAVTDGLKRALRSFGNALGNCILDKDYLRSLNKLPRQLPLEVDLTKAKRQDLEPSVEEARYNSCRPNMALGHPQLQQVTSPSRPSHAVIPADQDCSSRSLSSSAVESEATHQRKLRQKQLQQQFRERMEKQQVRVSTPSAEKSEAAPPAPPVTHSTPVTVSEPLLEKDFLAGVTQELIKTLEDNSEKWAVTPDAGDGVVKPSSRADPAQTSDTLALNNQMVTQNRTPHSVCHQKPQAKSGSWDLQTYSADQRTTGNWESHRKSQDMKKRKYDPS

[10] = target: T5, Zinc finger protein mex-5 (Caenorhabditis elegans, UniProt Q9XUB2); test: MEX-5/TCR-2 RNA interaction inhibitors, dose response, biochemical, C. elegans, fluorescence polarization (AID 1960)
T5 sequence (Q9XUB2 whole entry): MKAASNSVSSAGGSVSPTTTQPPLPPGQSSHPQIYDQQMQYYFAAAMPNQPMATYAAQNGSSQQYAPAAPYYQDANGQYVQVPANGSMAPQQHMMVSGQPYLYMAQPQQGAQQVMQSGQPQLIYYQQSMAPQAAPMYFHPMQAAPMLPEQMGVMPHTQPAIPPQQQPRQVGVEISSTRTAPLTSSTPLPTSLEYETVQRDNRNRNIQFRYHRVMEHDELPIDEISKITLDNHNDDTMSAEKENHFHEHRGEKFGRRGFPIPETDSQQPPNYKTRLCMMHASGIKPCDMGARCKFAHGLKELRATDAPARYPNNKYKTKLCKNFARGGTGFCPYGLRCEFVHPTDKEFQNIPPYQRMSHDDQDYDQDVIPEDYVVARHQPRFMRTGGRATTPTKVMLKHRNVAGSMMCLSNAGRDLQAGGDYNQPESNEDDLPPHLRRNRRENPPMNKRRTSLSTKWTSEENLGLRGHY

[11] = target: T6, RNA-binding protein pos-1 (Caenorhabditis elegans, UniProt G5EF15); test: inhibitors of POS-1/mex-3 RNA binding, dose response, biochemical, fluorescence polarization (AID 1964);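 also: purified POS-1 fused to maltose binding protein made in E. coli; potency of compounds blocking POS-1 binding to fluorescent RNA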
T6 sequence (G5EF15 whole entry): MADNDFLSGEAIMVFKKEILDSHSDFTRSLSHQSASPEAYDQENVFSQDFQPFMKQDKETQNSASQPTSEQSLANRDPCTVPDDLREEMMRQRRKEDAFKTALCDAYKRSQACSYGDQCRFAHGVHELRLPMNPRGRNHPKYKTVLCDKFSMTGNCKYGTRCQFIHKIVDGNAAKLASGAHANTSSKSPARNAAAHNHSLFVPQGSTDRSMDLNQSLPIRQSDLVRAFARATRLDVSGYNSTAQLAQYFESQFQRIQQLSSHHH

[12] = target: T7, DNA repair and recombination protein RAD54-like (Homo sapiens, UniProt Q92698); test: inhibitors of human RAD54 branch migration, confirmation, biochemical, fluorescence, cherry-picked samples, dose series (AID 651657); assay type: functional
T7 sequence (Q92698 whole entry): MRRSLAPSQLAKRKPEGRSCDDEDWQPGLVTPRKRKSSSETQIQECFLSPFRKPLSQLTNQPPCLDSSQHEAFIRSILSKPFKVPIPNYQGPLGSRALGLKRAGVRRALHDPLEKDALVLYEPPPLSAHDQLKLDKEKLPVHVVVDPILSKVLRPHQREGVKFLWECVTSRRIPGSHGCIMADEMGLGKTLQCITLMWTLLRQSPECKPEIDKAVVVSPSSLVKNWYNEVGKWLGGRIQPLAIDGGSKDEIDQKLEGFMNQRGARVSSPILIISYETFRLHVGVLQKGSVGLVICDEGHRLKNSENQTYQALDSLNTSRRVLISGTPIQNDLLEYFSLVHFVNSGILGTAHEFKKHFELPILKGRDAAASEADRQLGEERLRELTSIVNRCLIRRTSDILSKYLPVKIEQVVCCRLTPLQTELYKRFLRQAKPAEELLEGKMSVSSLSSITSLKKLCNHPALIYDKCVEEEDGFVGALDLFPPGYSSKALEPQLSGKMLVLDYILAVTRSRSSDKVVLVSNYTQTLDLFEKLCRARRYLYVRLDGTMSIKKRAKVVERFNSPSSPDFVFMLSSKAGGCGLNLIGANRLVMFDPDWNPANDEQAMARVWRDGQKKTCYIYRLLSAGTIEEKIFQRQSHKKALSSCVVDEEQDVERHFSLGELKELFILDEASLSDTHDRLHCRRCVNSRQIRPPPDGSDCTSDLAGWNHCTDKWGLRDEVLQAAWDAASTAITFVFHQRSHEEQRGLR

HEK293 [13] = test: NOD2 signaling inhibitors in MDP-stimulated cells, cell-based, uHTS, luminescence (AID 2001); assay type: functional; details: Homo sapiens
Vero [14] = test: cells; assay type: functional, cell-based; details: Chlorocebus sabaeus
Vero [15] = test: host cell cytotoxicity of antiviral hits, dose response, cytotoxicity control for West Nile virus antiviral project, secondary assay (AID 1650); assay type: functional; details: Chlorocebus sabaeus
HEK293 [16] = test: cells; assay type: functional, cell-based; details: Homo sapiens
HEK293 [17] = test: cells; assay type: functional, cell-based; details: Homo sapiens; remark: listed apart in the source
HEK293 [18] = test: NOD1 signaling inhibitors, primary screen, cell-based, luminescence, uHTS (AID 1578); assay type: functional; details: Homo sapiens
Vero [19] = test: cells; assay type: functional; details: Chlorocebus sabaeus
[20] = A Cell Based Secondary Assay To Explore Cytotoxicity of Compounds that Sensitize Mycobacterium Tuberculosis to Beta-Lactam Antibiotics.; assay type: functional
Cytochrome P450 3A4 = Cytochrome P450 3A4 (Homo sapiens, UniProt P08684);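 also: CYP3A4 tested as one member of a cytochrome P450 panel screen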
Sequence of Cytochrome P450 3A4 (P08684 whole entry): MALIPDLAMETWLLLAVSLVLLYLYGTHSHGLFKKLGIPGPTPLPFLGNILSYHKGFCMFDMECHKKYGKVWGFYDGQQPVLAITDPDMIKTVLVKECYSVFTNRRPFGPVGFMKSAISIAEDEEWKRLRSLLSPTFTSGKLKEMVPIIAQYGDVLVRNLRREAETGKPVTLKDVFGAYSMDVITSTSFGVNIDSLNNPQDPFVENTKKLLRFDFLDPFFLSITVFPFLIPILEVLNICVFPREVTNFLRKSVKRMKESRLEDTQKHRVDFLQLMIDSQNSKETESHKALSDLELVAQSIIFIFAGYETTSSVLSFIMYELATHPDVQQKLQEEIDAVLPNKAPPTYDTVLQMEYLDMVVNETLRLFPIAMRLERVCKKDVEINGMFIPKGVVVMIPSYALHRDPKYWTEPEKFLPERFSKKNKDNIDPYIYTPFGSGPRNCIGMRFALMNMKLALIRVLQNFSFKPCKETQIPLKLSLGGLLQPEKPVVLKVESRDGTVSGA

Cytochrome P450 2C9 = Cytochrome P450 2C9 (Homo sapiens, UniProt P11712)
Sequence of Cytochrome P450 2C9 (P11712 whole entry): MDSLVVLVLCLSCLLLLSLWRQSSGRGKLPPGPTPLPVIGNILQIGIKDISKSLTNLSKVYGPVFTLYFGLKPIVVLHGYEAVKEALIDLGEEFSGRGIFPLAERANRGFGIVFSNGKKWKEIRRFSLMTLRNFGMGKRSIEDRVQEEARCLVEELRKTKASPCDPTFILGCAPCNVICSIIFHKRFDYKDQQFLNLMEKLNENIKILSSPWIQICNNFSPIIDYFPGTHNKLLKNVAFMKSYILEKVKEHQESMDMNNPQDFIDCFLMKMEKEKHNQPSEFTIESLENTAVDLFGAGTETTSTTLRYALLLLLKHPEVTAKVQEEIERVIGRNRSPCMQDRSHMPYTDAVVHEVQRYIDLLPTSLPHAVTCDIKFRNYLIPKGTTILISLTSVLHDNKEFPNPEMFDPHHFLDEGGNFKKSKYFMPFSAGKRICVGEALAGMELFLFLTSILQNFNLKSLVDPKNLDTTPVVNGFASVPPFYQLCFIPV

Cytochrome P450 1A2 = target: T8, Cytochrome P450 1A2 (Homo sapiens, UniProt P05177);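 also: PubChem cytochrome P450 panel assay, CYP1A2 panel member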
T8 sequence (P05177 whole entry): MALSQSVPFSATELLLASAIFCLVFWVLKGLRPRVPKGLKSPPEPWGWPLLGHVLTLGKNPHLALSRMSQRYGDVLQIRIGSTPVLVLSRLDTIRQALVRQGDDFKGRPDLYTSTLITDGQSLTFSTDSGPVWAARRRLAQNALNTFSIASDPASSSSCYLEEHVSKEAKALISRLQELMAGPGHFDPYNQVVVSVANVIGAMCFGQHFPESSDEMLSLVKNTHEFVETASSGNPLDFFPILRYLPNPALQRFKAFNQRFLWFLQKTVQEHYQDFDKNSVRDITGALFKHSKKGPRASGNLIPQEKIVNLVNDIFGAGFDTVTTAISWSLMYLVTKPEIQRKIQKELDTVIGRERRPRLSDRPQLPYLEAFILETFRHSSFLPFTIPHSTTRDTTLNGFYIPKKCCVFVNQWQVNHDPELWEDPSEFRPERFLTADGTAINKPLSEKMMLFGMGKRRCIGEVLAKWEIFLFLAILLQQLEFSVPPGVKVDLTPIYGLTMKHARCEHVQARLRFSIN

SMILES: COc1ccc(-c2nc(CSCC(=O)NC3CC3)c(C)o2)cc1
- IC50 (HEK293 [1]): > 80 µM (inactive)

SMILES: CCCCCNC(=O)C(c1ccc(C(F)(F)F)cc1)n1c(=O)c(-c2ccco2)nc2ccccc21 (stereo not given)
- IC50 [2]: 2.85 µM (active)

SMILES: O=c1cc[nH]c(=O)[nH]1 [URACIL]
- GI50 (P388): 164 µM (inactive)
- GI50 (P388/ADR): 292 µM (inactive)
- GI50 (SN12K1): 315 µM (inactive)

SMILES: O=[N+]([O-])c1cccc(SSc2cccc([N+](=O)[O-])c2)c1
- IC50 [3]: 1.62 µM (active)
- IC50 [4]: 3.73 µM (active)
- CC50 [5]: 100 µM (active)
- IC50 [6]: > 80 µM (inactive)
- IC50 [7]: 53.9 µM (active)
- AC50 [8]: 4.25 µM (active)

SMILES: Cc1ccc2nc3c(C(=O)NCCN(C)C)cccc3cc2c1
- GI50 (P388): 0.414 µM (active)
- GI50 (P388/ADR): 1.85 µM (inactive)
- GI50 (SN12K1): 0.968 µM (active)

SMILES: N=c1c(C(=O)NCCN2CCOCC2)cc2c(=O)n3ccccc3nc2n1CCc1ccccc1
- AC50 [9]: 10.5 µM (active)
- EC50 [10]: > 300 µM (not active)
- EC50 [11]: > 300 µM (not active)
- AC50 [12]: 25.2 µM (active)

SMILES: CCNC(=O)c1cc2c(=O)n3cccc(C)c3nc2n(CCc2ccccc2)c1=N
- EC50 [10]: 30 µM (active)
- EC50 [11]: 4.95 µM (inconclusive)
- AC50 [12]: 17.9 µM (active)

SMILES: Cn1c(/C=C/c2ccc(Cl)cc2)c([N+](=O)[O-])c(=O)n(C)c1=O
- IC50 (HEK293 [13]): 8.84 µM (active)
- IC50 (Vero [14]): > 25 µM (active)
- CC50 (Vero [15]): 15.7 µM (active)
- IC50 (HEK293 [16]): > 20 µM (inactive)
- IC50 (HEK293 [17]): 8.13 µM (active)
- EC50 (HEK293 [18]): 16 µM (active)
- CC50 (Vero [19]): 19.1 µM (active)
- CC50 [20]: 30 µM (active)

SMILES: CCOC(=O)c1c(NC(=O)c2ccc(S(=O)(=O)N3CCOCC3)cc2)sc2c1CCN(C)C2
- AC50 [9]: 11.6 µM (active)
- AC50 (Cytochrome P450 3A4): inconclusive
- AC50 (Cytochrome P450 2C9): 14.1 µM (inconclusive)
- AC50 [12]: 15.3 µM (active)
- AC50 (Cytochrome P450 1A2): 12.6 µM (inconclusive)

SMILES: COc1ccc2c3c1O[C@H]1C[C@@H](O)C=C[C@@]31CCN(C)C2 [GALANTAMINE]
- GI50 (P388): > 150 µM (inactive)
- GI50 (P388/ADR): > 150 µM (inactive)
- GI50 (SN12K1): > 150 µM (inactive)

SMILES: CC1OC1C(=O)C1(O)C(C)C(O)C23OC2(C(O)c2c(O)cccc2C3=O)C1O (stereo not given) [CERVICARCIN]
- GI50 (P388): 0.144 µM (active)
- GI50 (P388/ADR): 0.18 µM (active)
- GI50 (SN12K1): 0.225 µM (active)

— ChEMBL document CHEMBL1201862, “PubChem BioAssay data set” (2004)
